Experimental data taken from patent publication EP0863134A1, “2-(3,5-difluorophenyl)-3-(4-(methyl-sulfonyl)phenyl)-2-cyclopenten-1-one useful as an inhibitor of cyclooxygenase-2” (MERCK FROSST CANADA INC., priority 1997, dated 1998).

Tests used:
[1] = biological target: T1, COX-2 (Homo sapiens, UniProt P35354); experiment: Whole cell assay for COX-2 using CHO transfected cell line CHO[hCOX-2]; assay type: cell-based; conditions: CHO[hCOX-2] cells, 10 µM AA, PGE2
T1 construct: endogenous in cells; host or cells: fresh heparinized human whole blood from volunteers, LPS-stimulated
T1 sequence (P35354 18-604): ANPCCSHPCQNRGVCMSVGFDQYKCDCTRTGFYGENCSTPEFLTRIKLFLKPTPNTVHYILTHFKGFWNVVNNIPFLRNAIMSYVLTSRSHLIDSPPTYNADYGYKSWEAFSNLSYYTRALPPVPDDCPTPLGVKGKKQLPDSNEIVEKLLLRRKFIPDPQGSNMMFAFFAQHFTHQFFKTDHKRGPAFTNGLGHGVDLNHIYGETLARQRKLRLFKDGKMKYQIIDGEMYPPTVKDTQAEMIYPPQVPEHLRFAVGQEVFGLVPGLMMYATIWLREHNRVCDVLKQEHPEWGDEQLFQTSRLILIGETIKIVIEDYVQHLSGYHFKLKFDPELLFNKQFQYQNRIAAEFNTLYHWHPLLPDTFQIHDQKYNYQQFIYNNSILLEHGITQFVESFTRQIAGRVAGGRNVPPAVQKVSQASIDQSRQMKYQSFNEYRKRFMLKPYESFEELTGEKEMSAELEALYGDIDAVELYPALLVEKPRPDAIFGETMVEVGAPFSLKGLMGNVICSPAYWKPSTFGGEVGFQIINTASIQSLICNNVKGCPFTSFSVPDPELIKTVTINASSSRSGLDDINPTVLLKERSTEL
Description: (§1) Chinese hamster ovary (CHO) cell lines which have been stably transfected with an eukaryotic expression vector pCDNAIII containing either the human COX-1 or COX-2 cDNA's are used for the assay. These cell lines are referred to as CHO [hCOX-1] and CHO [hCOX-2], respectively. For cyclooxygenase assays, CHO[hCOX-1] cells from suspension cultures and CHO[hCOX-2] cells prepared by trypsinization of adherent cultures are harvested by centrifugation (300 x g, 10 min) and washed once in HBSS containing 15 mM HEPES, pH 7.4, and resuspended in HBSS, 15 mM HEPES, pH 7.4, at a cell concentration of 1.5 x 10^6 cells/ml. Drugs to be tested are dissolved in DMSO to 66.7-fold the highest test drug concentration. Compounds are typically tested at 8 concentrations in duplicate using serial 3-fold serial dilutions in DMSO of the highest drug concentration. […] Cyclooxygenase activity in the absence of test compounds is determined as the difference in PGE2 levels of cells challenged with arachidonic acid versus the PGE2 levels in cells mock-challenged with ethanol vehicle. Inhibition of PGE2 synthesis by test compounds is calculated as a percentage of the activity in the presence of drug versus the activity in the positive control samples. […] In the assays, inhibition is determined by measuring the amount of a prostaglandin synthesized in the presence and absence of a putative inhibitor. […]

[2] = tested on: Rat Paw edema; experiment: Rat paw edema assay (carrageenan); assay type: in vivo, Male Sprague-Dawley rats; conditions: po, 1 hr before carrageenan, paw volume 3 hr later
Description: Male Sprague-Dawley rats (150-200 g) are fasted overnight and are given po, either vehicle (1% methocel or 5% Tween 80) or a test compound. One hr later, a line is drawn using a permanent marker at the level above the ankle in one hind paw to define the area of the paw to be monitored. The paw volume (V0) is measured using a plethysmometer (Ugo-Basile, Italy) based on the principle of water displacement. The animals are then injected subplantarly with 50 µl of 1% carrageenan solution in saline (FMC Corp, Maine) into the paw using an insulin syringe with a 25-gauge needle (i.e. 500 µg carrageenan per paw). Three hr later, the paw volume (V3) is measured and the increases in paw volume (V3 - VO) are calculated. The animals are sacrificed by CO2 asphyxiation and the absence or presence of stomach lesions scored. Data is compared with the vehicle-control values and percent inhibition calculated. All treatment groups are coded to eliminate observer bias.
Compounds of the present invention are inhibitors of COX-2 and are thereby useful in the treatment of COX-2 mediated diseases as enumerated above. The activities of compound A against cyclooxygenase may be seen in the representative results shown below in the Table. In the assays, inhibition is determined by measuring the amount of a prostaglandin synthesized in the presence and absence of a putative inhibitor. […]

[3] = biological target: T2, COX-1 (Homo sapiens, UniProt P23219); experiment: Whole cell assay for COX-1 using CHO transfected cell line CHO[hCOX-1]; assay type: cell-based; parameters: platelets in whole blood contain a large amount of the COX-1 enzyme; endogenous in cells; host or cells: platelets in fresh human whole blood without anticoagulant; conditions: CHO[hCOX-1] cells, 0.5 µM AA, PGE2
T2 sequence (P23219 24-599): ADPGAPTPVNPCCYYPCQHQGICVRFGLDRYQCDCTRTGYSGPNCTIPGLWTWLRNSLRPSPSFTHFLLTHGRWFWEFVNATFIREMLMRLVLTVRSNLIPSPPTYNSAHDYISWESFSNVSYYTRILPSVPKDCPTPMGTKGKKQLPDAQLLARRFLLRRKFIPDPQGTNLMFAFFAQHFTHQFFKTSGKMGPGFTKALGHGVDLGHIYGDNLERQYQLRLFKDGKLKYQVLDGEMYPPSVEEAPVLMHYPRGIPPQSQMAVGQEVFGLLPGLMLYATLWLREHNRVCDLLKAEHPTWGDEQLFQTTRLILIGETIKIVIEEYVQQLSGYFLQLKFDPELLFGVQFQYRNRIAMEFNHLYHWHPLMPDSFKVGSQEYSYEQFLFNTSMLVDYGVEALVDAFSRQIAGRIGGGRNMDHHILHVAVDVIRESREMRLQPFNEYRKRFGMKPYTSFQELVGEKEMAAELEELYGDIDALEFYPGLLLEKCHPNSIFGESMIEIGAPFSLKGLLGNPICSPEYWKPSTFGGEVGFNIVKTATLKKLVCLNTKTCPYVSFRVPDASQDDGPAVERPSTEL
Description: as §1

[4] = biological target: T2, COX-1; experiment: Human whole blood assay, COX-1 (clotting-induced TxB2 production); assay type: cell-based; parameters: platelets in whole blood contain a large amount of the COX-1 enzyme; endogenous in cells; host or cells: platelets in fresh human whole blood without anticoagulant; conditions: clotting-induced TxB2, 1 hour at 37°C
Description: (§2) Human whole blood provides a protein and cell-rich milieu appropriate for the study of biochemical efficacy of anti-inflammatory compounds such as selective COX-2 inhibitors. […] This is consistent with the observation that COX-2 inhibitors have no effect on PGE2 production in normal blood. These inhibitors are active only after incubation of human whole blood with LPS, which induces COX-2. This assay can be used to evaluate the inhibitory effect of selective COX-2 inhibitors on PGE2 production. As well, platelets in whole blood contain a large amount of the COX-1 enzyme. Immediately following blood clotting, platelets are activated through a thrombin-mediated mechanism. […] Thus, the effect of test compounds on TxB2 levels following blood clotting can be examined and used as an index for COX-1 activity. Therefore, the degree of selectivity by the test compound can be determined by measuring the levels of PGE2 after LPS induction (COX-2) and TxB2 following blood clotting (COX-1) in the same assay. Fresh blood is collected into vacutainers containing no anticoagulants. […] In the assays, inhibition is determined by measuring the amount of a prostaglandin synthesized in the presence and absence of a putative inhibitor. […]

[5] = biological target: T1, COX-2; experiment: Human whole blood assay, COX-2 (LPS-induced PGE2 production); assay type: cell-based; conditions: LPS-induced PGE2, 24 hours at 37°C
Description: as §2, with “in heparinized tubes by venipuncture from both male and female volunteers. The subjects have” for “into vacutainers containing”, “apparent inflammatory conditions and have not taken any NSAIDs for at least 7 days prior to blood collection.” for “anticoagulants.”

[6] = biological target: T2, COX-1; experiment: Assay of COX-1 activity from U937 cell microsomes; assay type: biochemical; parameters: endogenous in cells; host or cells: U937 cells, 100,000 x g microsomal fraction; conditions: PGE2
Description: U 937 cells are pelleted by centrifugation at 500 x g for 5 min and washed once with phosphate-buffered saline and repelleted. Cells are resuspended in homogenization buffer consisting of 0.1 M Tris-HCl, pH 7.4, 10 mM EDTA, 2 µg/ml leupeptin, 2 µg/ml soybean trypsin inhibitor, 2 µg/ml aprotinin and 1 mM phenyl methyl sulfonyl fluoride. The cell suspension is sonicated 4 times for 10 sec and is centrifuged at 10,000 x g for 10 min at 4° C. The supernatant is centrifuged at 100,000 x g for 1 hr at 4° C. The 100,000 x g microsomal pellet is resuspended in 0.1 M Tris-HCl, pH 7.4, 10 mM EDTA to approximately 7 mg protein/ml and stored at -80° C. Microsomal preparations are thawed immediately prior to use, subjected to a brief sonication, and then diluted to a protein concentration of 125 µg/ml in 0.1 M Tris-HCl buffer, pH 7.4 containing 10 mM EDTA, 0.5 mM phenol, 1 mM reduced glutathione and 1 µM hematin. Assays are performed in duplicate in a final volume of 250 µl. […] Samples are neutralized with 25 µl of 1 N NaOH prior to quantitation of PGE2 content by radioimmunoassay (Dupont-NEN or Amersham assay kits). […] In the assays, inhibition is determined by measuring the amount of a prostaglandin synthesized in the presence and absence of a putative inhibitor. […]

IC50 [1] [nM]	IC50 [3] [nM]	IC50 [4] [nM]	IC50 [5] [nM]	IC50 [6] [nM]	IC50 ([3]; unit inferred) [nM]	SMILES	ED50 [2] [mg/kg]
30	> 50000	77000	450	11000		CS(=O)(=O)c1ccc(C2=C(c3cc(F)cc(F)c3)C(=O)CC2)cc1 [Compound A, 2-(3,5-difluorophenyl)-3-(4-(methylsulfonyl)phenyl)-2-cyclopenten-1-one]	2.6
20		4400	120	450	17000	CS(=O)(=O)c1ccc(C2=C(c3ccc(F)cc3)C(=O)CC2)cc1 [Compound B]	3
